# System: CD34+ cells from peripheral blood
# Experiment: AMPLIFICATION PROTOCOL: ex vivo amplification of hematopoietic progenitors
# Assay type: cell-based, human
# Details: 10 μM, FIG. 1
# Procedure: This is a strategy for the amplification of hematopoietic progenitors. The culture is formed as follows: CD34^+ cells from peripheral blood are isolated (as indicated in section II.A.1), and cultured for 12 days in Stem Span II medium (Stem Cell Technologies) supplemented with cytokines: SCF 100 ng/mL, FLT3-L 100 ng/mL, TPO 20 ng/mL, G-CSF 10 ng/mL. The amplification product is analyzed by quantification of proliferation (count on Malassez slides) and phenotypic analysis of CD34^+ cell subpopulations by flow cytometry. […] Vitisin B is also compared with the following stilbene-type molecules at 10 μM concentration: Resveratrol, Pallidol, E-Viniferin, Ampelopsin, Oxyresveratrol, Picateatannol, Gnetol
# At the end of the hematopoietic cell amplification protocol, an analysis of cell proliferation and amplification of immature and committed cell populations is performed.
# Cell proliferation is evaluated by counting cells on Malassez slides with Trypan blue exclusion of dead cells.
# The amplification of cell populations is based on a phenotypic analysis relating to the evolution of the expression of membrane markers CD34 and CD133 by flow cytometry. These markers make it possible to define more or less immature cell populations organized hierarchically as follows: CD34^+CD133^+->CD34^+CD133^neg->CD34^negCD133^neg. To this end, cells are incubated with anti-CD34 (1:100,000) (BD Pharmingen) and anti-CD133 (1:100,000) (BD Pharmingen) antibodies for 15 minutes. The cells are then rinsed with a PBS solution and centrifuged (430×g, 10 min, 4° C.). After resuspension of the cell pellets in PBS, the cells are analyzed by flow cytometry (FACSCantoll, Becton Dickinson, San Jose, CA).
# The proportions of each phenotypic population thus observed and the total amount of cells make it possible to calculate the rate of amplification of the most immature cells (CD34^+CD133+) compared with the amplification of more committed progenitors (CD34^+CD133^neg and CD34^negCD133^neg).
row,Structure (SMILES),amplification of the CD34+CD133neg subpopulation (erythrocyte potential)
1,"Oc1ccc(C=Cc2cc(O)cc(O)c2)cc1 [RESVERATROL, Resveratrol]",no effect

# Same assay, conditions: 10 μM, FIG. 2
row,Structure (SMILES),effect on the proportion and total amount of CD34+CD133neg cells
1,"O=C1c2c(O)cc(O)cc2O[C@H](c2cc(O)c(O)c(O)c2)[C@H]1O [AMPELOPSIN, Ampelopsin]",only vitisin B has a convincing effect
2,"Oc1ccc(/C=C/c2cc(O)cc3c2[C@@H](c2cc(O)cc(O)c2)[C@H](c2ccc(O)cc2)O3)cc1 [E-VINIFERIN, E-Viniferin]",only vitisin B has a convincing effect
3,"Oc1cc(O)cc(/C=C/c2c(O)cccc2O)c1 [GNETOL, Gnetol]",only vitisin B has a convincing effect
4,"Oc1cc(O)cc(/C=C/c2ccc(O)cc2O)c1 [OXYRESVERATROL, Oxyresveratrol]",only vitisin B has a convincing effect
5,"Oc1ccc(C=Cc2cc(O)cc(O)c2)cc1 [RESVERATROL, Resveratrol]",only vitisin B has a convincing effect

# — US20260265694A1, “USE OF A VITISIN COMPOUND FOR THE PRODUCTION OF HEMATOPOIETIC CELLS” (ETABLISSEMENT FRANCAIS DU SANG, priority 2022, published 2026)
